Values of other authors as cited in US20250002523A1, “RUBUSOSIDE GLUCOSIDES” (SYMRISE AG, priority 2021, published 2025).

Details: reported in the background section

C=C1C[C@@]23CC[C@H]4[C@@](C)(CCC[C@@]4(C)C(=O)O[C@@H]4O[C@H](CO)[C@@H](O)[C@H](O)[C@H]4O)[C@@H]2CC[C@]1(O[C@@H]1O[C@H](CO)[C@@H](O)[C@H](O)[C@H]1O)C3 [Rubusoside]
sweet taste impression relative to sucrose: 200 times as strong as sucrose
